What is called Ki is the dissociation constant of the complex between target and ligand, obtained from inhibition or displacement. A word on the inhibition: it is the drop in the measured response relative to a control, in per cent. In general, IC50 refers to the concentration that gives 50% inhibition. Higher therefore signals a need for much substance.

One test deals with sigma 1 (h) (Homo sapiens (Human), UniProt Q99720). Description: Sigma-1 binding assay. The settings on record: [3H](+)pentazocine, Jurkat cells; read-out: Sigma-1 Ki. As to the method:
(§1) Assays for determining Sigma-1 and Sigma-2 binding values were performed according to Ganapathy, M. E. et al. (1999), J. Pharmacol. Exp. Ther., 289:251-260.

The target of a further test is Sigma 2 (h) (Homo sapiens (Human), UniProt Q5BJF2). Put plainly: Sigma-2 binding assay. As to the method: as §1
For test [1], the target named is T1, α1a (h) (Homo sapiens (Human), UniProt P35348). Description: α1A adrenergic antagonist effect assay. In kind it is cell-based. The following applies: for inhibition at 1 µM: α1A(h) antagonist effect, read-out: % inhibition of control values (1 μM). As to the method:
Assays for determining the antagonist effect on α1A (h) were performed according to the procedure described in Example 21, and the results are represented in Table E below. […] No antagonist effect is observed for the other compounds.

Test [2] has as its target T1, α1a (h). Put plainly: α1A adrenergic agonist effect assay. The class given is cell-based. The following applies: α1A(h) agonist effect, 1 μM; read-out: % stimulation relative to control (1 μM). As to the method: Assays for determining the agonist effect on α1A (h) were performed according to the procedure described in Example 21, and the results are represented in Table D below.

A further test has as its target dopamine D2S receptor (Homo sapiens (Human), UniProt P14416). Put plainly: Dopamine D2S receptor binding assay (Eurofins Cerep item 1322). The following applies: [3H]7-OH-DPAT, read-out: % inhibition of control specific binding (1 μM). As to the method: Assays for determining dopamine D2S receptor binding values were performed according to Eurofins Cerep protocol item 1322 and the results are represented in Table C below. The parameters used for the assay are described below. […] Common antipsychotics, in contrast, block dopamine receptors (Keefe, et al., J Clin Psychiatry. 2018; 79 (3): 17m11753).

In a further test the target is hERG (Homo sapiens (Human), UniProt Q12809). Description: hERG inhibition assay. In general terms: Block of hERG is tested as a sign of cardiac risk.
Another test concerns the target 5HT2A (Homo sapiens (Human), UniProt P28223). Put plainly: 5HT2A agonist effect assay. The class given is cell-based. The following applies: for activation at 0.1 µM: 100 nM, read-out: % stimulation relative to control (100 nM); for activation at 1 µM: read-out: % stimulation relative to control (1 μM). As for the experimental part: Assays for determining the agonist effect on 5HT2A were performed according to the procedure described in Example 21, and the results are represented in Table F below. The compounds in Table F have no agonist effect on 5HT2A at 1 μM and 100 nM.

Where [3] appears, read: [3H]DTG (+1 μM (+)pentazocine), Jurkat cells, read-out: Sigma-2 Ki.

Structures are written as SMILES. Like-named read-outs stand apart in the source and are kept apart here. Where only a bound is given, the exact number is not on record here.

hERG, sequence (Q12809 whole entry): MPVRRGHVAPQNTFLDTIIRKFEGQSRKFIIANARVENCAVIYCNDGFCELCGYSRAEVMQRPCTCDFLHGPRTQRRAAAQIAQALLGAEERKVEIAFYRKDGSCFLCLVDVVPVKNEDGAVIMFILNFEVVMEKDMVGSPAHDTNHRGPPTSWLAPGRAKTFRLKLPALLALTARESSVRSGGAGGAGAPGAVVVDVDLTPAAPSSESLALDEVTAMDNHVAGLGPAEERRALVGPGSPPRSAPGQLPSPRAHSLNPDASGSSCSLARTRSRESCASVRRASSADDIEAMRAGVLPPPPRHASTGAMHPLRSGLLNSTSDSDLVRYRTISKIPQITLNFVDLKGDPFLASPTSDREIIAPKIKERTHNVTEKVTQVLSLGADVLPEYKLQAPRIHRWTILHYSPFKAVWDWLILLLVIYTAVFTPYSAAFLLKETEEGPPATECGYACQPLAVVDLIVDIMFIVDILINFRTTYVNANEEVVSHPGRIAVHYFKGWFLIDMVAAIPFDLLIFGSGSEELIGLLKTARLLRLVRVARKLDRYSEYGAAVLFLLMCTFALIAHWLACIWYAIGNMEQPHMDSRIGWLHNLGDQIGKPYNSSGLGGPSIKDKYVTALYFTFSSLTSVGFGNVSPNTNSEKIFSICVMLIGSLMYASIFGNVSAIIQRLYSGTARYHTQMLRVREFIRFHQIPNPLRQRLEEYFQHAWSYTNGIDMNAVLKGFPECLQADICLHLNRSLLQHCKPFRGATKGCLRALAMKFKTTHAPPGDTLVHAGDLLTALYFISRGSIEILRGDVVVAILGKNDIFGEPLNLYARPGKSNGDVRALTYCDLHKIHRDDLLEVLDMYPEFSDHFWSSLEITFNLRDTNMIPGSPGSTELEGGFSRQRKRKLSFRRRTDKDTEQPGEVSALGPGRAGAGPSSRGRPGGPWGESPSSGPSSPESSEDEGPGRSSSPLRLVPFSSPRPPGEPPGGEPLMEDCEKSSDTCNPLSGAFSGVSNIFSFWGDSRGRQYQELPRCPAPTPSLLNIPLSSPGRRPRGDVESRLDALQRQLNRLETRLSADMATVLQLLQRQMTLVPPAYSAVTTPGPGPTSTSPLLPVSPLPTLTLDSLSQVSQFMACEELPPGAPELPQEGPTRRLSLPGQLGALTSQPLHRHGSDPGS
dopamine D2S receptor, sequence (P14416 other isoform, or with tags, fused parts or gaps): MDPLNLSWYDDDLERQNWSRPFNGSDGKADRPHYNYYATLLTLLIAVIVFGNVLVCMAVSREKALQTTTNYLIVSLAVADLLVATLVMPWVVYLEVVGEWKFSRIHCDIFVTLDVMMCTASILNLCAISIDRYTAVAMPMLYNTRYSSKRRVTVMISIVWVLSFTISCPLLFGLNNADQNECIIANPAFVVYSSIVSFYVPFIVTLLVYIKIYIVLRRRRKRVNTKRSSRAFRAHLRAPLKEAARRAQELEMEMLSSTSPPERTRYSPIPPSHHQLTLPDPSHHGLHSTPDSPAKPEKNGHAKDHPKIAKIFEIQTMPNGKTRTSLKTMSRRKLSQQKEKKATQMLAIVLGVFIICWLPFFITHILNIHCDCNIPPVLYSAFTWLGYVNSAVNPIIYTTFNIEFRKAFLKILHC
Sigma 2 (h), sequence (Q5BJF2 whole entry): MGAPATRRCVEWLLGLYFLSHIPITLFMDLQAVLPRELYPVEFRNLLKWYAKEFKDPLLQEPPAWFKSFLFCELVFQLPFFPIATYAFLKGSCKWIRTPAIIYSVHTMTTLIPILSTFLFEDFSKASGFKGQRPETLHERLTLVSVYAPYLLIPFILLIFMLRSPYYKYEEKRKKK
sigma 1 (h), sequence (Q99720 whole entry): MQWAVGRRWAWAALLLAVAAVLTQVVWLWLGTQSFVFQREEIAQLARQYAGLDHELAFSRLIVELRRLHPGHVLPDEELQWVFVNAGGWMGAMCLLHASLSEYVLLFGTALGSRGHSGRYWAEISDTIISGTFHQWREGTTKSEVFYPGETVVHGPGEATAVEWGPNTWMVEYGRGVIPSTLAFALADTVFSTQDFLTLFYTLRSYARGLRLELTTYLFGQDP
T1 sequence (P35348 whole entry): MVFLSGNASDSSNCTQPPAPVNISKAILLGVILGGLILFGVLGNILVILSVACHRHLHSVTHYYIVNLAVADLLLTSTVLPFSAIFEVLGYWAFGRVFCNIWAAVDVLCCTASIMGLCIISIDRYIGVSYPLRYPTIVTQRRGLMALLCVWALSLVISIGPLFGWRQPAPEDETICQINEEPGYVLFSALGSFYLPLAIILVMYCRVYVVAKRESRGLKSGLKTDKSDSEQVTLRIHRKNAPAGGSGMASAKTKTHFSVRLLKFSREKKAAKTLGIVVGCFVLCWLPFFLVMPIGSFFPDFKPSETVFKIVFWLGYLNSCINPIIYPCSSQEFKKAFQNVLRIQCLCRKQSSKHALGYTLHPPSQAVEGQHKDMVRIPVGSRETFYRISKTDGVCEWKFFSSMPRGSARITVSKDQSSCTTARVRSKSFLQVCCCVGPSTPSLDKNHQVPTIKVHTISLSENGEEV

For the compound `CN1CCN(c2ccc3c(c2)CN(C(=O)OCc2ccccc2)CC3(C)C)CC1` [Compound 1, benzyl 4,4-dimethyl-7-(4-methylpiperazin-1-yl)-3,4-dihydroisoquinoline-2(1H)-carboxylate], the Ki at sigma 1 (h) and at Sigma 2 (h) (setting [3]) was 100 to 500 nM each time.

Consider `COC(=O)CCN1CCN(c2ccc3c(c2)CN(C(=O)OCc2ccccc2)CC3(C)C)CC1` [Compound 3, benzyl 7-(4-(3-methoxy-3-oxopropyl)piperazin-1-yl)-4,4-dimethyl-3,4-dihydroisoquinoline-2(1H)-carboxylate], for which the figures for the Ki on sigma 1 (h) and on Sigma 2 (h) (setting [3]) were 100 to 500 nM and 5 to 50 nM, respectively.

On to `CC1(C)CN(C2CCCC2)Cc2cc(-c3ccc(C(F)(F)F)cc3)ccc21` [Compound 4, 2-cyclopentyl-4,4-dimethyl-7-(4-(trifluoromethyl)phenyl)-1,2,3,4-tetrahydroisoquinoline], for which the Ki at sigma 1 (h) was greater than 500 nM; at Sigma 2 (h) (setting [3]), 100 to 500 nM.

In the case of `CC1(C)CN(CCCO)Cc2cc(-c3ccc(C(F)(F)F)cc3)ccc21` [Compound 5, 3-(4,4-dimethyl-7-(4-(trifluoromethyl)phenyl)-3,4-dihydroisoquinolin-2(1H)-yl)propan-1-ol], the Ki at sigma 1 (h) and on Sigma 2 (h) (setting [3]) was 100 to 500 nM in each case.

Consider `CCCN1Cc2cc(-c3ccc(C(F)(F)F)cc3)ccc2C(C)(C)C1` [Compound 6, 4,4-dimethyl-2-propyl-7-(4-(trifluoromethyl)phenyl)-1,2,3,4-tetrahydroisoquinoline], for which the Ki at sigma 1 (h) and on Sigma 2 (h) (setting [3]) was greater than 500 nM in each case.

Consider `CN1CCN(c2ccc3c(c2)CN(C(=O)OCc2ccccc2)CCC3(C)C)CC1` [Compound 7, benzyl 5,5-dimethyl-8-(4-methylpiperazin-1-yl)-1,3,4,5-tetrahydro-2H-benzo[c]azepine-2-carboxylate], for which the values for the Ki at sigma 1 (h) and at Sigma 2 (h) (setting [3]) were 5 to 50 nM and 100 to 500 nM, respectively.

On to `CCCN1CCN(c2ccc3c(c2)CN(C(=O)OCc2ccccc2)CCC3(C)C)CC1` [Compound 8, benzyl 5,5-dimethyl-8-(4-propylpiperazin-1-yl)-1,3,4,5-tetrahydro-2H-benzo[c]azepine-2-carboxylate], for which the Ki on sigma 1 (h) was in the range of 0.1 to 5 nM; at Sigma 2 (h) (setting [3]), 5 to 50 nM.

Turning to `COC(=O)CCN1CCN(c2ccc3c(c2)CN(C(=O)OCc2ccccc2)CCC3(C)C)CC1` [Compound 9, benzyl 8-(4-(3-methoxy-3-oxopropyl)piperazin-1-yl)-5,5-dimethyl-1,3,4,5-tetrahydro-2H-benzo[c]azepine-2-carboxylate], the Ki at sigma 1 (h) and at Sigma 2 (h) (setting [3]) was 5 to 50 nM each time.

As for `CC1(C)CCN(CCCO)Cc2cc(-c3ccc(C(F)(F)F)cc3)ccc21` [Compound 11, 3-(5,5-dimethyl-8-(4-(trifluoromethyl)phenyl)-1,3,4,5-tetrahydro-2H-benzo[c]azepin-2-yl)propan-1-ol], the figures for the Ki at sigma 1 (h) and at Sigma 2 (h) (setting [3]) were greater than 500 nM and 100 to 500 nM, respectively.

For the compound `CCCN1CCC(C)(C)c2ccc(-c3ccc(C(F)(F)F)cc3)cc2C1` [Compound 12, 5,5-dimethyl-2-propyl-8-(4-(trifluoromethyl)phenyl)-2,3,4,5-tetrahydro-1H-benzo[c]azepine], the Ki on sigma 1 (h) is greater than 500 nM; at Sigma 2 (h) (setting [3]), 50 to 100 nM.

With `CC1(C)CCN(C2CCCCC2)Cc2cc(-c3ccc(C(F)(F)F)cc3)ccc21` [Compound 32, 2-cyclohexyl-5,5-dimethyl-8-(4-(trifluoromethyl)phenyl)-2,3,4,5-tetrahydro-1H-benzo[c]azepine], the inhibition at 1 µM at α1a (h) [1] is 25%; at dopamine D2S receptor it was 8%. The activation at 1 µM at α1a (h) [2] was determined as 0%; on 5HT2A it was 2%. The compound further displayed an IC50 at hERG greater than 3000 nM. At 5HT2A, the activation at 0.1 µM amounted to 1%. This compound had a Ki on Sigma 2 (h) of 50 to 100 nM.

As for `CC1(C)CN(S(=O)(=O)c2cccc(Cl)c2)Cc2cc(N3CCN(C4CCCC4)CC3)ccc21` [Compound 33, 2-((3-chlorophenyl)sulfonyl)-7-(4-cyclopentylpiperazin-1-yl)-4,4-dimethyl-1,2,3,4-tetrahydroisoquinoline], the values for the inhibition at 1 µM on α1a (h) [1] and on dopamine D2S receptor were 9% and 13%, respectively. The activation at 1 µM on α1a (h) [2] and at 5HT2A was -1% throughout. In addition, the Ki on sigma 1 (h) and on Sigma 2 (h) (setting [3]) was 0.1 to 5 nM each time. In addition, on hERG, the IC50 was greater than 3000 nM. Moreover, the activation at 0.1 µM on 5HT2A turned out to be 0%.

Turning to `CC1(C)CCN(C(=O)c2cccc3c2OCO3)Cc2cc(N3CCC(N4CCOCC4)CC3)ccc21` [Compound 84, benzo[d][1,3]dioxol-4-yl(5,5-dimethyl-8-(4-morpholinopiperidin-1-yl)-1,3,4,5-tetrahydro-2H-benzo[c]azepin-2-yl)methanone], the inhibition at 1 µM at α1a (h) [1] was 19%; on dopamine D2S receptor, -1%. Besides, the activation at 1 µM on α1a (h) [2] is 0%; on 5HT2A, -2%. Moreover, on sigma 1 (h), the Ki lay within 5 to 50 nM. The IC50 at hERG was greater than 3000 nM. Also, on 5HT2A, the activation at 0.1 µM is -2%.

For `CC1(C)CCN(C(=O)C2CCCC2)Cc2cc(N3CCC(N4CCOCC4)CC3)ccc21` [Compound 85, cyclopentyl(5,5-dimethyl-8-(4-morpholinopiperidin-1-yl)-1,3,4,5-tetrahydro-2H-benzo[c]azepin-2-yl)methanone], the inhibition at 1 µM is 10% at α1a (h) [1] and -3% on dopamine D2S receptor. Moreover, the values for the activation at 1 µM on α1a (h) [2] and on 5HT2A were 1% and 0%, respectively. For the same compound, on sigma 1 (h), the Ki was 5 to 50 nM. At hERG, this compound had an IC50 greater than 3000 nM. Besides, at 5HT2A, the activation at 0.1 µM is -2%.

Turning to `CC1(C)CCN(C(=O)C2CCCCC2)Cc2cc(N3CCC(N4CCOCC4)CC3)ccc21` [Compound 86, cyclohexyl(5,5-dimethyl-8-(4-morpholinopiperidin-1-yl)-1,3,4,5-tetrahydro-2H-benzo[c]azepin-2-yl)methanone], the inhibition at 1 µM was -3% on α1a (h) [1] and 2% at dopamine D2S receptor. Besides, the activation at 1 µM on α1a (h) [2] worked out at 0%; at 5HT2A, 1%. In addition, at sigma 1 (h), the Ki is 0.1 to 5 nM. Also, the IC50 against hERG is greater than 3000 nM. Further, at 5HT2A, the activation at 0.1 µM stood at 2%.

With `Cc1cc(-c2ccc3c(c2)CN(CCC(=O)N2CCc4ccccc4C2)CCC3(C)C)cc(C)n1` [Compound 111, 1-(3,4-dihydroisoquinolin-2(1H)-yl)-3-(8-(2,6-dimethylpyridin-4-yl)-5,5-dimethyl-1,3,4,5-tetrahydro-2H-benzo[c]azepin-2-yl)propan-1-one], on α1a (h) [1], the “antagonist effect on α1A (h) (in words)” value is “small antagonist effect” and the inhibition at 1 µM was 57%. For the same compound, the activation at 1 µM at α1a (h) [2] was 0%. Also, the inhibition at 1 µM at dopamine D2S receptor worked out at 37%. This compound returned an IC50 against hERG of 2220 nM. For the same compound, on 5HT2A, the activation at 0.1 µM is -1% and the activation at 1 µM is -2%. In addition, at Sigma 2 (h) (setting [3]), the Ki was in the range of 50 to 100 nM.

For `Cc1cc(-c2ccc3c(c2)CN(CCC(=O)N2CCC(C)CC2)CCC3(C)C)cc(C)n1` [Compound 131, 3-(8-(2,6-dimethylpyridin-4-yl)-5,5-dimethyl-1,3,4,5-tetrahydro-2H-benzo[c]azepin-2-yl)-1-(4-methylpiperidin-1-yl)propan-1-one], the inhibition at 1 µM at α1a (h) [1] amounted to 31%; on dopamine D2S receptor it was 21%. Further, the activation at 1 µM on α1a (h) [2] and at 5HT2A was -1% throughout. For the same compound, the IC50 against hERG is greater than 3000 nM. Moreover, on 5HT2A, the activation at 0.1 µM amounted to 1%. On Sigma 2 (h), this compound had a Ki of 50 to 100 nM.

Source of the values: patent US20240376068A1, “SIGMA LIGAND COMPOUNDS AND USES THEREOF” (Minerva Neurosciences, Inc., priority 2020, published 2024).
